Reference: the OligoGym collection
After the bases stand the sugars from the 5' end (letter, count) and the backbone: PS all phosphorothioate, else s phosphorothioate and o phosphodiester by linkage. Methylation of C is not given here. l = locked nucleic acid (LNA); d = 2'-deoxy (DNA)

Target: SNHG14
Conditions: ASO
[1] = Mouse Primary Neuronal Cell, 0.005 µM

| Sequence | target mRNA inhibition (Human Neuronal Cell, 7.5 µM) | target mRNA inhibition (Human Neuronal Cell, 0.2 µM) | target mRNA inhibition (Human Neuronal Cell, 1 µM) | further results |
| --- | --- | --- | --- | --- |
| GTTTCCATCTACTATTAA (sugars llldldddddddllddll, PS) | 28% |  |  |  |
| GTTTCCATCTACTATTAAT (sugars lddddlddddddllddlll, PS) | 59% |  |  |  |
| GTTTCCATCTACTATTAAT (sugars ldldllddddddddddlll, PS) | 59% |  |  |  |
| TAAAATTATTTATACACCA (sugars l2 d3 l1 d7 l6, PS) | 47% |  |  |  |
| TAAAATTATTTATACACCA (sugars l5 d8 l2 d1 l3, PS) | 65% |  |  |  |
| TAAAATTATTTATACACCAT (sugars ldddlllddddddllldlll, PS) | 34% |  |  |  |
| TAAAATTATTTATACACCAT (sugars llldldldddddddlldlll, PS) | 21% |  |  |  |
| TAAAATTATTTATACACCAT (sugars lllldllddddddlllldll, PS) | -13% |  |  |  |
| TAAAGATCCCATCACTC (sugars l3 d11 l3, PS) |  | 44% | 50% |  |
| TAATCCTATTCCAACT (sugars l3 d10 l3, PS) |  | 16% | 17% |  |
| TACACAATCAACAACAAAT (sugars l4 d13 l2, PS) |  | 25% | 41% |  |
| TACACTTAATTATACTTC (sugars l2 d12 l4, PS) |  | 26% | 42% |  |
| TACACTTAATTATACTTCCA (sugars ldlddllddddddlddddll, PS) | 59% |  |  |  |
| TACACTTAATTATACTTCCA (sugars lldldlddddddddddddll, PS) | 60% |  |  |  |
| TACATCTCATACTTGCT (sugars l2 d11 l4, PS) |  | -18% | 2% | target mRNA inhibition (Human Neuronal Cell, 5 µM): 18%; target mRNA inhibition [1]: 95% |
| TACCTACATCTCATACT (sugars l2 d13 l2, PS) |  | -1% | 0% | target mRNA inhibition (Human Neuronal Cell, 5 µM): 11%; target mRNA inhibition [1]: 78.6% |
| TACCTACATCTCATACTT (sugars l4 d12 l2, PS) |  | -19% | 3% | target mRNA inhibition (Human Neuronal Cell, 5 µM): 7%; target mRNA inhibition [1]: 94.8% |
| TACTATCTTTGACATTC (sugars l4 d11 l2, PS) |  | 48% | 59% |  |
| TACTCTGCAATACACC (sugars l1 d1 l1 d10 l3, PS) | 60% |  |  |  |
| TACTCTGCAATACACC (sugars l1 d1 l1 d11 l2, PS) | 50% |  |  |  |
| TACTCTGCAATACACC (sugars l2 d2 l1 d9 l2, PS) | 61% |  |  |  |
| TACTCTGCAATACACC (sugars l2 d12 l2, PS) | 59% |  |  |  |

| Sequence | target mRNA inhibition (Human Neuronal Cell, 7.5 µM) | target mRNA inhibition (Human Neuronal Cell, 0.2 µM) | target mRNA inhibition (Human Neuronal Cell, 1 µM) | further results |
| --- | --- | --- | --- | --- |
| TACTCTGCAATACACC (sugars l3 d11 l2, PS) | 55% |  |  |  |
| TACTCTGCAATACACCA (sugars l1 d1 l1 d12 l2, PS) | 55% |  |  |  |
| TACTCTGCAATACACCA (sugars l1 d10 l1 d3 l2, PS) | 59% |  |  |  |
| TACTCTGCAATACACCA (sugars l2 d10 l2 d1 l2, PS) | 60% |  |  |  |
| TATACACCATCATTATA (sugars l4 d11 l2, PS) |  | 41% | 60% |  |
| TATACCTTTCTTTAACCCTT (sugars ldddddldddddddddldll, PS) | 66% |  |  |  |
| TATAGACCCAAACTAT (sugars l3 d10 l3, PS) |  | 15% | 26% |  |
| TATCTCATTTACATTATT (sugars l4 d12 l2, PS) |  | 27% | 43% |  |
| TATTCTTACCGTCTTTA (sugars l3 d11 l3, PS) |  | 40% | 63% |  |
| TATTGATTCAATTCCCT (sugars l2 d2 l1 d10 l2, PS) | 55% |  |  |  |
| TATTGATTCAATTCCCT (sugars lldldddddddddldll, PS) | 69% |  |  |  |
| TCACACCTATTATATAA (sugars l3 d11 l3, PS) |  | 11% | 16% |  |
| TCACTGTTCTGACTTT (sugars l3 d10 l3, PS) |  | 19% | 18% | target mRNA inhibition (Human Neuronal Cell, 5 µM): 28% |
| TCACTTTCCAGATATCA (sugars l2 d13 l2, PS) |  | 23% | -6% | target mRNA inhibition (Human Neuronal Cell, 5 µM): 17%; target mRNA inhibition [1]: 46.6% |
| TCACTTTCCAGATATCA (sugars l4 d11 l2, PS) |  | 17% | 5% | target mRNA inhibition (Human Neuronal Cell, 5 µM): 15%; target mRNA inhibition [1]: 92% |
| TCATATTGAACCAATT (sugars l4 d10 l2, PS) |  | 59% | 71% |  |
| TCATCCCTCCAAGAAA (sugars l4 d10 l2, PS) |  | -12% | -17% | target mRNA inhibition (Human Neuronal Cell, 5 µM): -46% |
| TCCATTTATTTCCATTTAT (sugars ldldlldddddddldddll, PS) | 55% |  |  |  |
| TCCATTTATTTCCATTTATT (sugars l2 d11 l2 d3 l2, PS) | 58% |  |  |  |
| TCTCAAAGATCATTCT (sugars l4 d10 l2, PS) |  | 54% | 62% |  |
| TCTCAAAGATCATTCTC (sugars l3 d11 l3, PS) |  | 57% | 63% |  |
| TCTCAGCTTCTTCAAAT (sugars l2 d12 l3, PS) |  | 26% | 23% |  |

| Sequence | target mRNA inhibition (Human Neuronal Cell, 7.5 µM) | target mRNA inhibition (Human Neuronal Cell, 0.2 µM) | target mRNA inhibition (Human Neuronal Cell, 1 µM) | further results |
| --- | --- | --- | --- | --- |
| TCTCCAACATAGATCCT (sugars l4 d11 l2, PS) |  | 33% | 46% |  |
| TCTGTATACACCATCCC (sugars l1 d11 l1 d2 l2, PS) | 54% |  |  |  |
| TCTGTATACACCATCCC (sugars l2 d10 l1 d2 l2, PS) | 61% |  |  |  |
| TCTTTCCATTTATTTCCATT (sugars l2 d3 l1 d11 l3, PS) | 56% |  |  |  |
| TCTTTGACATTCCATCTC (sugars l4 d12 l2, PS) |  | 49% | 56% |  |
| TGAAAATCTCAACTACCAT (sugars l1 d3 l2 d10 l3, PS) | 43% |  |  |  |
| TGAAAATCTCAACTACCAT (sugars l1 d11 l1 d2 l4, PS) | 24% |  |  |  |
| TGAAAATCTCAACTACCAT (sugars lddldlddddddldddlll, PS) | 19% |  |  |  |
| TGAAACATTCTTCCCAC (sugars l2 d12 l3, PS) |  | 11% | 13% |  |
| TGCAAATACCTCTTCA (sugars l4 d10 l2, PS) |  | 64% | 69% |  |
| TGTACTTACACATCTA (sugars l3 d10 l3, PS) |  | 42% | 34% |  |
| TGTTTATACCCTTTCCAA (sugars l1 d12 l2 d1 l2, PS) | 58% |  |  |  |
| TGTTTATACCCTTTCCAA (sugars lddlddddddddlddlll, PS) | 61% |  |  |  |
| TGTTTATACCCTTTCCAA (sugars lldldlddddddldddll, PS) | 54% |  |  |  |
| TGTTTCCATCTACTATTA (sugars lddddlddddddddldll, PS) | 62% |  |  |  |
| TGTTTCCATCTACTATTA (sugars lddddldddddddlddll, PS) | 62% |  |  |  |
| TGTTTCCATCTACTATTA (sugars lddldlddddddddddll, PS) | 59% |  |  |  |
| TTAAGCTTTCACCTAT (sugars l2 d10 l4, PS) |  | 37% | 54% |  |
| TTACACTTAATTATACTTCC (sugars ldddldldddddddllddll, PS) | 62% |  |  |  |
| TTACACTTAATTATACTTCC (sugars lddlldldddddddddddll, PS) | 68% |  |  |  |
| TTACACTTAATTATACTTCC (sugars ldldldldddddddddldll, PS) | 65% |  |  |  |
| TTACCTACATCTCATACTT (sugars l2 d15 l2, PS) |  | -5% | -7% | target mRNA inhibition (Human Neuronal Cell, 5 µM): 7%; target mRNA inhibition [1]: 79% |

| Sequence | target mRNA inhibition (Human Neuronal Cell, 7.5 µM) | target mRNA inhibition (Human Neuronal Cell, 0.2 µM) | target mRNA inhibition (Human Neuronal Cell, 1 µM) | further results |
| --- | --- | --- | --- | --- |
| TTATACCTTTCTTTAACCCT (sugars l1 d5 l1 d11 l2, PS) | 59% |  |  |  |
| TTATACCTTTCTTTAACCCT (sugars ldddldldddddddldddll, PS) | 62% |  |  |  |
| TTATACCTTTCTTTAACCCT (sugars ldldddddddddddddldll, PS) | 53% |  |  |  |
| TTATACCTTTCTTTAACCCT (sugars ldlddddddddddlddddll, PS) | 60% |  |  |  |
| TTATAGCCATTCTATCT (sugars l1 d1 l1 d10 l4, PS) | 55% |  |  |  |
| TTATAGCCATTCTATCT (sugars l1 d1 l2 d11 l2, PS) | 66% |  |  |  |
| TTATAGCCATTCTATCT (sugars l2 d10 l2 d1 l2, PS) | 56% |  |  |  |
| TTATAGCCATTCTATCT (sugars l2 d11 l1 d1 l2, PS) | 56% |  |  |  |
| TTATAGCCATTCTATCT (sugars l3 d10 l1 d1 l2, PS) | 59% |  |  |  |
| TTATAGCCATTCTATCT (sugars ldddldddddddlddll, PS) | 31% |  |  |  |
| TTATAGCCATTCTATCT (sugars ldddlddddddllddll, PS) | 16% |  |  |  |
| TTATAGCCATTCTATCT (sugars lddlddddddddlddll, PS) | 17% |  |  |  |
| TTATAGCCATTCTATCT (sugars lddldddddddldddll, PS) | 36% |  |  |  |
| TTATAGCCATTCTATCT (sugars lddldddddddldllll, PS) | 22% |  |  |  |
| TTATAGCCATTCTATCT (sugars lddllddddddddldll, PS) | 62% |  |  |  |
| TTATAGCCATTCTATCT (sugars lddllddddddldldll, PS) | 15% |  |  |  |
| TTATAGCCATTCTATCT (sugars ldldddddddddldlll, PS) | 53% |  |  |  |
| TTATAGCCATTCTATCT (sugars ldldlddddddldddll, PS) | 47% |  |  |  |
| TTATAGCCATTCTATCT (sugars ldldlddddddlddlll, PS) | 37% |  |  |  |
| TTATAGCCATTCTATCT (sugars ldlldddddddldddll, PS) | 43% |  |  |  |
| TTATAGCCATTCTATCT (sugars ldlldddddddlddlll, PS) | 21% |  |  |  |
